Key:
Type in all cases: in vivo
[1] = tested on: galium (catchweed bedstraw, Galium aparine); assay: Test A postemergence, visual plant response rating; settings: for Galium plant response rating (0 to 100 scale): 500 g ai/ha, postemergence, 0 is no effect, 100 is complete control; for Galium plant response rating: Postemergence, 125 g ai/ha, 0 to 100 scale (0 no effect, 100 complete control)
Method in brief: (§1)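 Ratings 0–100 (100 = complete control), visual, vs untreated controls at ~10 days. Application pre- or postemergence; solvent mixture with surfactant; loam/sand medium.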

[2] = tested on: ragweed (common ragweed, Ambrosia elatior); assay: Test A postemergence, visual plant response rating; settings: for Ragweed plant response rating (0 to 100 scale): 500 g ai/ha, postemergence, 0 is no effect, 100 is complete control; for Ragweed plant response rating: Postemergence, 125 g ai/ha, 0 to 100 scale (0 no effect, 100 complete control)
Method in brief: as §1

[3] = tested on: barnyardgrass (Echinochloa crus-galli); assay: Test A postemergence, visual plant response rating; settings: for Barnyardgrass plant response rating (0 to 100 scale): 500 g ai/ha, postemergence, 0 is no effect, 100 is complete control; for Barnyardgrass plant response rating: Postemergence, 125 g ai/ha, 0 to 100 scale (0 no effect, 100 complete control)
Method in brief: as §1

[4] = tested on: pigweed (Amaranthus retroflexus); assay: Test A postemergence, visual plant response rating; settings: for Pigweed plant response rating (0 to 100 scale): 500 g ai/ha, postemergence, 0 is no effect, 100 is complete control; for Pigweed plant response rating: Postemergence, 125 g ai/ha, 0 to 100 scale (0 no effect, 100 complete control)
Method in brief: as §1

[5] = tested on: blackgrass (Alopecurus myosuroides); assay: Test A postemergence, visual plant response rating; settings: for Blackgrass plant response rating (0 to 100 scale): 500 g ai/ha, postemergence, 0 is no effect, 100 is complete control; for Blackgrass plant response rating: Postemergence, 125 g ai/ha, 0 to 100 scale (0 no effect, 100 complete control)
Method in brief: as §1

[6] = tested on: foxtail, giant (giant foxtail, Setaria faberii); assay: Test A postemergence, visual plant response rating; settings: for Foxtail, Giant plant response rating (0 to 100 scale): 500 g ai/ha, postemergence, 0 is no effect, 100 is complete control; for Foxtail, Giant plant response rating: Postemergence, 125 g ai/ha, 0 to 100 scale (0 no effect, 100 complete control)
Method in brief: as §1

[7] = tested on: kochia (Kochia scoparia); assay: Test A postemergence, visual plant response rating; settings: for Kochia plant response rating (0 to 100 scale): 500 g ai/ha, postemergence, 0 is no effect, 100 is complete control; for Kochia plant response rating: Postemergence, 125 g ai/ha, 0 to 100 scale (0 no effect, 100 complete control)
Method in brief: as §1

[8] = tested on: Italian ryegrass (Lolium multiflorum); assay: Test A postemergence, visual plant response rating
Method in brief: as §1

[9] = tested on: wheat (Triticum aestivum); assay: Test A postemergence, visual plant response rating; settings: for Wheat plant response rating: 0 to 100 scale (0 no effect, 100 complete control)
Method in brief: as §1

[10] = tested on: corn (Zea mays); assay: Test A postemergence, visual plant response rating; settings: for Corn plant response rating (0 to 100 scale): 500 g ai/ha, postemergence, 0 is no effect, 100 is complete control; for Corn plant response rating: Postemergence, 125 g ai/ha, 0 to 100 scale (0 no effect, 100 complete control)
Method in brief: as §1

[11] = tested on: ducksalad (Heteranhera limosa); assay: Test B flooded paddy test, visual plant response rating; settings: 250 g ai/ha, Flood, applied to paddy water, 2-leaf stage, evaluated after 13 to 15 days
Method in brief: (§2)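 At the two-leaf stage, seedlings received compound applied to paddy water flooded 3 cm above soil, a level sustained until assessment. Greenhouse incubation lasted 13 to 15 days before visual comparison with control plants.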

[12] = tested on: barnyardgrass (Echinochloa crus-galli); assay: as above; settings: 250 g ai/ha, Flood, applied to paddy water, 2-leaf stage, evaluated after 13 to 15 days
Method in brief: as §2

[13] = tested on: rice (Oryza sativa); assay: as above; settings: 250 g ai/ha, Flood, applied to paddy water, 2-leaf stage, evaluated after 13 to 15 days
Method in brief: as §2

[14] = tested on: sedge, umbrella (small-flower umbrella sedge, Cyperus difformis); assay: as above; settings: 250 g ai/ha, Flood, applied to paddy water, 2-leaf stage, evaluated after 13 to 15 days
Method in brief: as §2

[15] = tested on: ragweed (common ragweed, Ambrosia elatior); assay: Test A preemergence, visual plant response rating; settings: for Ragweed plant response rating: 125 g ai/ha, preemergence, 0 to 100 scale, 0 no effect, 100 complete control; for Ragweed plant response rating (0 to 100 scale): 500 g ai/ha Preemergence, approx. 10 days
Method in brief: as §1

[16] = tested on: barnyardgrass (Echinochloa crus-galli); assay: Test A preemergence, visual plant response rating; settings: for Barnyardgrass plant response rating: 125 g ai/ha, preemergence, 0 to 100 scale, 0 no effect, 100 complete control; for Barnyardgrass plant response rating (0 to 100 scale): 500 g ai/ha Preemergence, approx. 10 days
Method in brief: as §1

[17] = tested on: pigweed (Amaranthus retroflexus); assay: Test A preemergence, visual plant response rating; settings: for Pigweed plant response rating: 125 g ai/ha, preemergence, 0 to 100 scale, 0 no effect, 100 complete control; for Pigweed plant response rating (0 to 100 scale): 500 g ai/ha Preemergence, approx. 10 days
Method in brief: as §1

[18] = tested on: foxtail, giant (giant foxtail, Setaria faberii); assay: Test A preemergence, visual plant response rating; settings: for Foxtail, Giant plant response rating: 125 g ai/ha, preemergence, 0 to 100 scale, 0 no effect, 100 complete control; for Foxtail, Giant plant response rating (0 to 100 scale): 500 g ai/ha Preemergence, approx. 10 days
Method in brief: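 Ratings use a 0–100 visual scale (100 = complete control) against untreated controls, scored about 10 days after greenhouse treatment. Test chemicals were formulated in surfactant-containing non-phytotoxic solvent and applied either as soil spray after planting (preemergence) or onto one- to two-leaf, 2–10 cm plants (postemergence).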

[19] = tested on: kochia (Kochia scoparia); assay: Test A preemergence, visual plant response rating; settings: for Kochia plant response rating: 125 g ai/ha, preemergence, 0 to 100 scale, 0 no effect, 100 complete control; for Kochia plant response rating (0 to 100 scale): 500 g ai/ha Preemergence, approx. 10 days
Method in brief: as §1

[20] = tested on: Italian ryegrass (Lolium multiflorum); assay: Test A preemergence, visual plant response rating; settings: for Ryegrass, Italian plant response rating: 125 g ai/ha, preemergence, 0 to 100 scale, 0 no effect, 100 complete control; for Ryegrass, Italian plant response rating (0 to 100 scale): 500 g ai/ha Preemergence, approx. 10 days
Method in brief: as §1

[21] = 500 g ai/ha, postemergence, 0 is no effect, 100 is complete control
[22] = Postemergence, rate not given, approx. 10 days

Structure (SMILES) | Galium plant response rating (0 to 100 scale) [1] | Galium plant response rating [1] | Ragweed plant response rating (0 to 100 scale) [2] | Ragweed plant response rating [2] | Barnyardgrass plant response rating (0 to 100 scale) [3] | Barnyardgrass plant response rating [3] | Pigweed plant response rating (0 to 100 scale) [4] | Pigweed plant response rating [4] | Blackgrass plant response rating (0 to 100 scale) [5] | Blackgrass plant response rating [5] | Foxtail, Giant plant response rating (0 to 100 scale) [6] | Foxtail, Giant plant response rating [6] | Kochia plant response rating (0 to 100 scale) [7] | Kochia plant response rating [7] | Ryegrass, Italian plant response rating (0 to 100 scale) [8, 21] | Corn plant response rating (0 to 100 scale) [10] | Corn plant response rating [10] | Plant response rating, Ducksalad (0 to 100 scale, 0 is no effect, 100 is complete control) [11] | Plant response rating, Barnyardgrass (0 to 100 scale, 0 is no effect, 100 is complete control) [12] | Plant response rating, Rice (0 to 100 scale, 0 is no effect, 100 is complete control) [13] | also measured
CO/N=C(/c1ccsc1C)c1c(O)c(C)nn(C)c1=O [Compound 135] | 40 | 30 | 20 | 0 | 0 | 0 | 30 | 20 | 0 | 0 | 0 | 0 | 10 | 0 | 30 | 0 | 0 | 0 | 0 | 0 | Ryegrass, Italian plant response rating ([8]; Postemergence, 125 g ai/ha, 0 to 100 scale (0 no effect, 100 complete control)): 0; Wheat plant response rating (0 to 100 scale) [9, 21]: 0; Wheat plant response rating ([9]; Postemergence, 125 g ai/ha): 0; Plant response rating, Sedge, Umbrella (0 to 100 scale, 0 is no effect, 100 is complete control) [14]: 0; Ragweed plant response rating [15]: 0; Ragweed plant response rating (0 to 100 scale) [15]: 10; Barnyardgrass plant response rating [16]: 0; Barnyardgrass plant response rating (0 to 100 scale) [16]: 0; Pigweed plant response rating [17]: 0; Pigweed plant response rating (0 to 100 scale) [17]: 20; Foxtail, Giant plant response rating [18]: 0; Foxtail, Giant plant response rating (0 to 100 scale) [18]: 0; Kochia plant response rating [19]: 0; Kochia plant response rating (0 to 100 scale) [19]: 10; Ryegrass, Italian plant response rating [20]: 0; Ryegrass, Italian plant response rating (0 to 100 scale) [20]: 0
CO/N=C(/c1cscc1C)c1c(O)c(C)nn(C)c1=O [Compound 140] | 70 | 70 | 70 | 50 | 20 | 0 | 90 | 80 | 0 | 0 | 30 | 10 | 60 | 20 | 60 | 20 | 10 | 0 | 0 | 0 | Ryegrass, Italian plant response rating (0 to 100 scale) [8, 22]: 10; Wheat plant response rating (0 to 100 scale) [9, 21]: 0; Wheat plant response rating (0 to 100 scale) ([9]; Postemergence, approx. 10 days): 0; Plant response rating, Sedge, Umbrella (0 to 100 scale, 0 is no effect, 100 is complete control) [14]: 0; Ragweed plant response rating [15]: 10; Ragweed plant response rating (0 to 100 scale) [15]: 50; Barnyardgrass plant response rating [16]: 0; Barnyardgrass plant response rating (0 to 100 scale) [16]: 0; Pigweed plant response rating [17]: 0; Pigweed plant response rating (0 to 100 scale) [17]: 90; Foxtail, Giant plant response rating [18]: 0; Foxtail, Giant plant response rating (0 to 100 scale) [18]: 10; Kochia plant response rating [19]: 0; Kochia plant response rating (0 to 100 scale) [19]: 0; Ryegrass, Italian plant response rating [20]: 20; Ryegrass, Italian plant response rating (0 to 100 scale) [20]: 50
CON=C(c1ccc(C)o1)c1c(O)c(C)nn(C)c1=O [Compound 141] | 10 | 0 | 0 | 0 | 0 | 0 | 0 | 0 | 30 | 10 | 0 | 0 | 0 | 0 | 0 | 0 | 0 | 0 | 0 | 0 | Ryegrass, Italian plant response rating (0 to 100 scale) [8, 22]: 0; Wheat plant response rating ([9]; Postemergence, 500 g ai/ha): 0; Wheat plant response rating (0 to 100 scale) ([9]; Postemergence, approx. 10 days): 0; Plant response rating, Sedge, Umbrella (0 to 100 scale, 0 is no effect, 100 is complete control) [14]: 0; Ragweed plant response rating [15]: 0; Ragweed plant response rating (0 to 100 scale) [15]: 0; Barnyardgrass plant response rating [16]: 0; Barnyardgrass plant response rating (0 to 100 scale) [16]: 0; Pigweed plant response rating [17]: 0; Pigweed plant response rating (0 to 100 scale) [17]: 0; Foxtail, Giant plant response rating [18]: 0; Foxtail, Giant plant response rating (0 to 100 scale) [18]: 0; Kochia plant response rating [19]: 0; Kochia plant response rating (0 to 100 scale) [19]: 0; Ryegrass, Italian plant response rating [20]: 0; Ryegrass, Italian plant response rating (0 to 100 scale) [20]: 20
CO/N=C(/c1c(O)c(C)nn(C)c1=O)c1ccc(OC)c2ccccc12 [Compound 142] | 70 | 50 | 30 | 0 | 10 | 10 | 10 | 10 | 80 | 30 | 30 | 20 | 30 | 0 | 70 | 30 | 0 | 0 | 0 | 0 | Ryegrass, Italian plant response rating (0 to 100 scale) [8, 22]: 0; Wheat plant response rating ([9]; Postemergence, 500 g ai/ha): 10; Wheat plant response rating (0 to 100 scale) ([9]; Postemergence, approx. 10 days): 0; Plant response rating, Sedge, Umbrella (0 to 100 scale, 0 is no effect, 100 is complete control) [14]: 0; Ragweed plant response rating [15]: 0; Ragweed plant response rating (0 to 100 scale) [15]: 20; Barnyardgrass plant response rating [16]: 0; Barnyardgrass plant response rating (0 to 100 scale) [16]: 50; Pigweed plant response rating [17]: 0; Pigweed plant response rating (0 to 100 scale) [17]: 0; Foxtail, Giant plant response rating [18]: 10; Foxtail, Giant plant response rating (0 to 100 scale) [18]: 60; Kochia plant response rating [19]: 0; Kochia plant response rating (0 to 100 scale) [19]: 0; Ryegrass, Italian plant response rating [20]: 0; Ryegrass, Italian plant response rating (0 to 100 scale) [20]: 20

Source: patent US20210045385A1, “PYRIDAZINONE-SUBSTITUTED KETOXIMES AS HERBICIDES” (FMC Corporation, priority 2018, published 2021)
